Two substances from patent US20260347399A1, “BRAIN PENETRATING PEPTIDES AND METHODS OF USE” (priority 2022, published 2026) can be followed below.

“Also recorded” adds a separate entry of the source. Ends that are not written are not given here.

Series [1] concerns Neuro2A cells. Description: In vitro AgNP binding and internalization. In kind it is cell-based, mouse. The note with it: pre-incubated with 100 μM free peptide, 1 h, 37 °C. On the procedure: To assess the binding and uptake of silver nanoparticles functionalized with Cerepep, Neuro2A were cultured in 24-well plates on polylysine coated glass coverslips until 80-90% confluency. Biotinylated Cerepep peptide or biotin as a non-targeted control and CF555 dye were conjugated to neutravidin-AgNPs prepared as described previously (Tobi et al., 2021). Some samples were pre-incubated with 100 μM Cerepep peptide (Ac-SERVISRAKLAAAL-OH (SEQ ID NO:9), where Ac-acetylation) at 37 °C for 1 h to assess whether the binding and internalization of particles is peptide-dependent. 10 μl (OD=100) of CP-AgNPs or control biotin-AgNPs were added to cells in 500 μl of media and incubated at 37 °C for 1h. In some samples, the cell surface-bound AgNPs were removed with a freshly prepared etching solution containing 10 mM of Na2S2O3 and K3Fe(CN)6 in PBS, which was applied for 3 min. All the samples were washed with DPBS to remove unbound AgNPs. The cells were fixed in methanol, stained with DAPI and analyzed with confocal microscopy as described above.
Next, the interaction of cultured Neuro2A cells with neutravidin-AgNPs labeled with NHS-CF555 dye and functionalized with biotinylated SRRVISRAKLAAAL (SEQ ID NO: 9) (CP-AgNPs) was tested.

For series [2], the system named is Reelin. Description: Peptide-phage binding on ELISA plate. More on the design: species or system human. On the procedure: Reelin protein (#8546-MR-050; R&D Systems), NRP-1 b1b2 (wt and mutant) or 5% BSA was immobilized on Costar 96-Well ELISA plate (#3590, Corning Life Sciences, Tewksbury, MA, USA). The multiwell plates were coated with 20 μg/ml recombinant protein in 100 μl of PBS overnight at +4 °C, followed by blocking with 1% bovine serum albumin (BSA) in PBS overnight at +4 °C. The phage (5×10^8 pfu in 100 μl of PBS-BSA) was incubated overnight at +4 °C, followed by 6 washes with PBS containing 1% BSA and 0.1% Tween-20 (washing buffer) to remove background phages. BLT5615 OD600=0.5 containing 2 mM IPTG was used to recover the phages and determine the titer of samples.
Next, an affinity chromatography was performed to identify a receptor of the CVGTNCY (SEQ ID NO:2), and selected a receptor candidate, which is a secreted extracellular matrix protein Reelin. CVGTNCY (SEQ ID NO:2) binding to Reelin protein was tested by cell free method on ELISA plate. Recombinant human Reelin protein (Ser1221-Gln2666; 163 kDa) was used to coat the ELISA plate and the CVGTNCY (SEQ ID NO:2) peptide-phage was allowed to bind to it. After several washes, the titer of the experiment was determined to rate on the binding efficiency.
Reelin was identified from affinity chromatography proteomics data. […] The binding efficiency was evaluated based on the titer (PFU/ml) of each sample. […]

Series [3] relates to mouse brain. Briefly: In vivo play-off screen with 4 CX4CYX peptides. The note with it: compared to CAGALCY.
The subject of series [4] is 22 different cell-lines. Briefly: CVGTNCY peptide-phage binding on cell lines. The format is cell-based, human or mouse. To be noted: +4 °C, 1 h; over control phage G7. On the procedure:
22 different cell-lines derived from human or mouse tumors or normal tissues were used in the experiments (Table 4).
To evaluate the CVGTNCY (SEQ ID NO:2) peptide-phage binding on cell lines, the CVGTNCY (SEQ ID NO:2) peptide-phage and control G7 phage were incubated on attached cells (except NCH421k cells that grow as speroids) in DMEM-0.5% BSA for 1 hour at +4 °C. Thereafter, the cells were washed four times with DMEM-0.5% BSA and phage was released in 1% NP40-LB to determine the titer of the samples.
An in vitro proximity labeling method was planned to use for the identification of the CVGTNCY (SEQ ID NO:2) peptide receptor. To accomplish receptor search, binding of CVGTNCY (SEQ ID NO:2) peptide-phage on 22 different cell-lines isolated from various tumors and normal tissues was tested.

The test system of series [5] is brain tissue homogenate. Briefly: Peptide-phage binding to brain tissue homogenate ex vivo. Details: species or system mouse.
For series [6], the system named is WT-GBM. Briefly: Peptide-phage homing in glioma-bearing mice. The format is in vivo, mouse. The note with it: peptide-phage i.v., 1 h. From the text: (§1) Animal experimentation procedures were approved by the Estonian Ministry of Agriculture, Committee of Animal Experimentation, Project #48 and #159. Balb/c mice and Athymic nude mice (HD) were housed in a pathogen-free environment at the Animal Facility of the Institute of Biomedicine and Translational Medicine, University of Tartu (Tartu, Estonia). For induction of orthotopic GBM xenografts in nude mice, 7×10^5 (WT-GBM, VEGFko GBM) cells were implanted intracranially in the right striatum of the brain (ccordinates: 2 mm laterally and 2 mm posteriorly from bregma and at 2.5 mm depth). Intracranial tumors developed for 6-7 days (WT-GBM) and 12-14 days (VEGFko GBM) before performing experiments.
(§2) Homing of CVGTNCY (SEQ ID NO:2) was analyzed in angiogenic WT-GBM and infiltrative VEGFko GBM models. First, CVGTNCY (SEQ ID NO:2) peptide-phage homing was evaluated based on titer after systemic injection into the glioma-bearing mice and perfusion with PBS.

Series [7] concerns VEGFko GBM. Description: Peptide-phage homing in glioma-bearing mice. To be noted: peptide-phage i.v., 1 h. In kind it is in vivo, mouse.
Excerpt: as §1, §2

Series [8] concerns rat CNS. Description: CVGTNCY peptide-phage biodistribution, rats. In kind it is in vivo. The note with it: peptide-phage i.v., 1 h. On the procedure: CVGTNCY (SEQ ID NO:2) peptide-phage or control phage were injected iv into mice, after one hour circulation animals were perfused with 20 ml PBS, organs were collected, weighed, and dropped to 1% NP40-LB solution. Organs were homogenized and titer of each tissue was determined. FAM-labeled peptides (2 mM of peptide in PBS) were injected intravenously and 3 hours later the animals were perfused with 20 mL of PBS. The organs were excised, snap-frozen in the vapor of liquid nitrogen, and stored at −80 °C. For confocal microscopy, the tissues were sectioned at 15 μm and stained with antibodies and DAPI.
To describe the utility of CVGTNCY (SEQ ID NO:2) peptide as a systemic CNS homing peptide, the biodistribution of CVGTNCY (SEQ ID NO:2) peptide-phage as well as peptide-functionalized AgNPs were analyzed in rodents. […] No significant difference between CVGTNCY (SEQ ID NO:2) and G7 titers was determined in the rest of the analyzed organs/tissues).

For the substance “SRRVISRAKLAAAL [Cerepep, SRRVISRAKLAAAL]”, in series [1], the “effect of free peptide on binding and internalization of CP-AgNPs” value is listed as “abolished”.
For CVGTNCY, the “binding to Reelin” value in series [2] was “specific binding”. Moreover, the “representation in the brain” value in series [3] is “highest representation in the brain”. Besides, the “peptide-phage binding on cell lines” value in series [4] is reported as “minimal binding”. Besides, the “binding to brain tissue homogenate ex vivo in the presence of whole blood” value in series [5] (with blood sample, p<0.05) is on record as “significantly increase binding”. Also, the “binding to brain tissue homogenate ex vivo” value in series [5] (without blood) is reported as “no binding was detected; also recorded: significantly disrupted”. Besides, the “ratio of CVGTNCY over G7, normal brain vs GBM” value in series [6] (WT-GBM and VEGFko GBM) was “higher in the normal brain parenchyma than in GBMs”. Besides, the “accumulation in WT-GBM compared to normal brain parenchyma” value in series [6] came to 6 times. The “accumulation in VEGFko GBM compared to normal brain parenchyma” value in series [7] is recorded as 2 times. In series [8], the “homing to CNS vs other organs” value is recorded as “homes preferentially to the CNS than to other organs”.
